# Measurements reported in US8815900B2, “Compounds and compositions for reducing lipid levels” (CVI Pharmaceuticals Limited, priority 2007, dated 2014).
# How the values were obtained:
# [1] = system: PCSK9 mRNA expression in HepG2 cells; assay: PCSK9 mRNA expression in HepG2 cells, quantitative real-time RT-PCR; type: cell-based, Human; conditions: 24 hours, indicated concentrations (FIG. 19B)
# Protocol: The effects of compounds of Formula I, II, III, and IV on the inhibition of PCSK9 mRNA expression was examined (Horton J D, Cohen J C, Hobbs H H. “Molecular biology of PCSK9: its role in LDL metabolism” TRENDS in Biochemical Sciences 2007; 32:71-77; Cameron J, Ranheim T, Kulseth M A, Leren T P, Berge K E. “Berberine decreases PCSK9 expression in HepG2 cells” Atherosclerosis, 2008 online publication). HepG2 cells were treated with new compounds individually at 10 uM dose for 24 hours. Total RNA was harvested for quantitative real-time RT-PCR analysis using method described in Example 16B. The fold activity was derived by dividing the amount of normalized PCSK9 mRNA in compound-treated cells over the amount of PCSK9 mRNA in untreated control cells. In these experiments, berberine chloride (10 uM) was included for comparison (see FIG. 18).
# Total RNA was harvested for quantitative real-time RT-PCR analysis using method described in Examples 16B. The fold activity was derived by dividing the amount of normalized LDLR or PCSK9 mRNA in compound-treated cells over the amount of LDLR or PCSK9 mRNA in untreated control cells.
# [2] = system: LDLR mRNA expression in HepG2 cells; assay: LDLR mRNA expression in HepG2 cells, quantitative real-time RT-PCR; type: cell-based, Human; conditions: 24 hours, indicated concentrations (FIG. 19A)
# Protocol: In yet another experiment, HepG2 cells were treated with various compounds for 24 hours at the indicated doses. Total RNA was isolated and 2 μg was used to generate cDNA in a reaction containing random primers and M-MLV at 37° C. for 1 hour in a volume of […] Real-time PCR was performed on the cDNA using MCEP REALPLEX 2 SYSTEM (Eppendorf) and Universal MasterMix (Applied Biosystems). Human LDLR and GAPDH Pre-Developed TaqMan Assay Reagents (Applied Biosystems) were used to assess the levels of mRNA expressions in HepG2. The levels of LDLR mRNA were normalized to that of GAPDH. Each RNA samples was assayed in triplicate. The abundance of LDLR mRNA in untreated cells was defined as 1, and the amounts of LDLR mRNA from compound-treated cells were plotted relative to that value in FIG. 13. The data shown are mean±s.d.
# Activities of some compounds of Formulas I, II, III, and IV on LDLR mRNA expression were determined. HepG2 cells were treated with new compounds individually at a dose less than or equal to 10 μM for 24 hours. Total RNA was harvested for quantitative real-time RT-PCR analysis using the method described in Example 16B. […] In these experiments, berberine chloride was included for comparison.
# Quantitative real-time RT-PCR was conducted, and triplicate was assayed in each RNA sample. The data are mean value of triplicates.
# Total RNA was harvested for quantitative real-time RT-PCR analysis using method described in Examples 16B.
smiles,measurement,setting,value
"COc1cc2c(cc1OC)C1Cc3ccc(OC)c(OS(=O)(=O)c4ccccc4)c3CN1CC2 (centres unmarked) [Compound 91, 2,3,10-trimethoxy-5,6,7,8,13,13a-hexahydroiso-quinolino[2,1-b]isoquinolin-9-yl benzenesulfonate]",PCSK9 mRNA expression,[1],inhibits
same,LDLR mRNA expression,[2],dose-dependently increases
